Measurements published in publication PMC6317055, “Metabolites from the Paracel Islands Soft Coral Sinularia cf. molesta” (Marine Drugs, 2018).
pIC50: −log10 of the molar value.

Experiments:
[1] = target: T1, protein tyrosine phosphatase 1B (PTP1B) (Homo sapiens, UniProt P18031); assay: PTP1B inhibitory assay, pNPP method
T1 sequence (P18031 1-435): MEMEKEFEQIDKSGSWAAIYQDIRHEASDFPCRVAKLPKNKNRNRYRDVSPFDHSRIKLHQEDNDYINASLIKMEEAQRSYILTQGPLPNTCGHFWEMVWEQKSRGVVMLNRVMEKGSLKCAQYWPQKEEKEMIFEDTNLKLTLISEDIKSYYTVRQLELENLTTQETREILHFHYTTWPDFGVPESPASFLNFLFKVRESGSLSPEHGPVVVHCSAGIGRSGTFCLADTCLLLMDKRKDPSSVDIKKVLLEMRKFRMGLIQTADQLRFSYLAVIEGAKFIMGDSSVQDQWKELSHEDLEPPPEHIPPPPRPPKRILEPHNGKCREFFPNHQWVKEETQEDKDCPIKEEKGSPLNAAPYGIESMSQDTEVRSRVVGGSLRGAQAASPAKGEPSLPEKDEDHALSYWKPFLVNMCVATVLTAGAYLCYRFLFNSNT
Description: These isolated sesquiterpenes were also assessed for their inhibitory activities against PTP1B.

[2] = Cytotoxicity assay, SRB method, HeLa; format: cell-based; conditions: human, adriamycin positive control, read-out: cytotoxicity IC50 against HeLa cell lines
Description: (§1) Considering the reported cytotoxic activities of some sesquiterpenes, cyclopentenone derivatives, and cembranoid diterpenes, all the compounds were evaluated for their cytotoxic activities against HeLa (human cervical carcinoma), HCT-116 (human colon carcinoma), BEL-7402 (human hepatocellular carcinoma), K562 (human leukemia), and Jurkat (human acute leukemia T) tumor cell lines.

[3] = Cytotoxicity assay, SRB method, HCT-116; format: cell-based; conditions: human, HCT-116 cells (human colon carcinoma); HCT-116, SRB method, adriamycin positive control; read-out: cytotoxicity IC50 against HCT-116 cell lines
Description: as §1

[4] = HeLa cells (human cervical carcinoma)

Row | SMILES | pIC50 [1] | pIC50 [2, 4] | also measured
1 | CC(C)C1=CC2=C(C(=O)C[C@@]2(C)O)[C@H](C)CC1 [Compound 4, Molestin C] | 3.66 |  | 
2 | C=C(C)[C@@H]1C/C=C2\C(=O)O[C@@H](C[C@]3(C)CC(=O)[C@H](CC(=O)C1)O3)[C@@H]2O [Compound 17, 5-epi-sinuleptolide] |  | 5.18 | 
3 | C=C(C)[C@@H]1C/C=C2\C(=O)O[C@@H](C[C@]3(C)CC(=O)[C@@H](CC(=O)C1)O3)[C@@H]2O [Compound 18, sinuleptolide] |  | 5.21 | 
4 | C=C/C(C)=C\CCC(C)Cc1cc(C(=O)O)co1 (stereo not shown) [Compound 8, (5′Z)-5-(2′,6′-Dimethylocta-5′,7′-dienyl)-furan-3-carboxylic acid] | 5.91 |  | 
5 | COC12CCC(C)(O)C1=CC(=O)CCC2C (stereo not shown) [Compound 5, Molestin D] | 3.46 |  | 
6 | C=C(C)C1CC2=C(C(=O)OC)C=C(O2)C(O)C(C)(O)CC2C=C(C(=O)O2)C(OC(C)=O)C1 (stereo not shown) [Compound 14, Molestin E] |  |  | pIC50 [3]: 5.08; pIC50 [2]: 5.28
